Reference: PubChem BioAssay (NCI)
Values joined by “and” are separate entries in the source; they are usually repeats but may differ in a detail not shown here. Equal entries are not always repeated.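 Dose response: 5 concentrations. Exposure: 48 h. Format: 96-well plates. Endpoint: linear interpolation; highest concentration if not reached. At the GI50, growth is halved. TGI is the concentration that stops growth completely.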

Columns and labels:
Test in all cases: DTP human tumour cell line panel, 48 h
A549 NSCLC = system: A549 NSCLC
BT-549 breast = system: BT-549 breast
KM12 colon = system: KM12 colon
SF-295 CNS = system: SF-295 CNS
SN12C renal = system: SN12C renal
SNB-19 CNS = system: SNB-19 CNS
SNB-75 CNS = system: SNB-75 CNS
UO-31 renal = system: UO-31 renal

Structure (SMILES) | GI50 (A549 NSCLC) | TGI (A549 NSCLC) | GI50 (BT-549 breast) | TGI (BT-549 breast) | GI50 (KM12 colon) | TGI (KM12 colon) | GI50 (SF-295 CNS) | TGI (SF-295 CNS) | GI50 (SN12C renal) | TGI (SN12C renal) | GI50 (SNB-19 CNS) | TGI (SNB-19 CNS) | GI50 (SNB-75 CNS) | TGI (SNB-75 CNS) | GI50 (UO-31 renal) | TGI (UO-31 renal)
CC1SC(c2cccs2)N(NC(=O)C(O)c2ccccc2)C1=O (stereo not drawn) | > 100 µM | > 100 µM | > 100 µM | > 100 µM | > 100 µM | > 100 µM | > 100 µM | > 100 µM | > 100 µM | > 100 µM | > 100 µM | > 100 µM | > 100 µM | > 100 µM | > 100 µM | > 100 µM
COc1ccccc1Nc1nc(-c2cc3cccc(C(F)(F)F)c3oc2=O)cs1 | 0.261 µM | > 100 µM | 0.26 µM |  | 0.0723 µM | 22.3 µM | 0.0353 µM | 24.2 µM | 1.04 µM | > 100 µM | 1.15 µM | > 100 µM | 0.0305 µM | 16.7 µM | 0.527 µM | > 57.1 µM
O=Nc1c(-c2cccc([N+](=O)[O-])c2)nc2ncccn12 | 21.8 µM | 56.9 µM | 15.8 µM | 32.1 µM | 12.4 µM | 26.8 µM | 21.9 µM | 66.5 µM | 16.4 µM | 42.3 µM | 18 µM | 39.6 µM | 10.9 µM | 23.8 µM | 5.66 µM | 30.3 µM
O=C1c2cc3c(cc2-c2c1c1ccc([N+](=O)[O-])cc1c(=O)n2CCCCl)OCO3 | 0.523 µM | > 100 µM | 0.308 µM | 24.5 µM | 2.27 µM | > 100 µM | 0.066 µM | > 100 µM | 0.0862 µM | 0.503 µM | 0.138 µM | > 100 µM | 3.35 µM | > 100 µM | 0.307 µM | > 100 µM
Cn1c(=O)c(F)c(Nc2ccc(I)cc2F)c2c(=O)n(C[C@@H](O)CO)cnc21 | 0.234 µM and 0.11 µM | 58.7 µM and > 4.08 µM | 12.6 µM | > 95.8 µM | 0.0237 µM and 0.0319 µM | 39.1 µM and > 4.11 µM | 14.1 µM and > 2.11 µM | > 78.3 µM | 3.91 µM and 0.487 µM | > 100 µM | 4.73 µM | > 100 µM | 4.11 µM | 30.8 µM and > 2.29 µM | 0.304 µM and 0.0568 µM | 15.4 µM and > 4.09 µM
COc1ccc2c(CNCCCCO)cc3cc4c(cc3c2c1)OCO4 | 0.552 µM | 6.07 µM | 3.83 µM | 11.9 µM | 1.83 µM | 7.33 µM | 0.624 µM | 4.68 µM | 1.92 µM | 7.72 µM | 1.71 µM | 9.78 µM | 2.02 µM | 6.67 µM | 0.21 µM | 4.12 µM
CSC(=S)N/N=C(\C)c1ccccn1 | 0.311 µM | 18 µM | 0.44 µM | 14.8 µM | 0.346 µM | 14.3 µM | 0.255 µM | 8.38 µM | 0.454 µM | 37.5 µM | 0.77 µM | > 72.3 µM | 1.47 µM | 32.3 µM | 0.154 µM | 11.8 µM
C=C1C(=O)O[C@H]2[C@H]1CC/C(COC(=O)CCC(=O)OC/C1=C/CC[C@@]3(C)O[C@H]3[C@H]3OC(=O)C(=C)[C@@H]3CC1)=C\CC[C@@]1(C)O[C@@H]21 | 13.7 µM | 30 µM | 1.4 µM | 2.83 µM | 3.88 µM | 16.6 µM | 10.5 µM | 25.3 µM | 2.04 µM | 6.63 µM | 8.46 µM | 25 µM | 15.1 µM | 45.7 µM | 1.02 µM | 2.39 µM
C[n+]1c2ccccc2c(NC2CCNCC2)c2[nH]c3ccccc3c21 | 0.0812 µM | 2.73 µM | 2.13 µM | 13.3 µM | 0.718 µM | 5.77 µM | 0.64 µM | 8.32 µM | 0.0324 µM | 0.314 µM | 0.269 µM | 2.2 µM | 0.524 µM | 2.72 µM | 13.9 µM | 43.7 µM
CN(C)CCn1cc(-c2ccc3c(Nc4ccc(CC(=O)Nc5cccc(F)c5)cc4)ncnc3c2)cn1 | 1.3 µM | 3.46 µM | 4.78 µM | > 10 µM | 0.393 µM | 1.97 µM | 2.95 µM | > 10 µM | 1.53 µM | 3.64 µM | 1.34 µM | 5.39 µM | 0.0472 µM | > 10 µM | 5.67 µM | > 10 µM
O=C1c2cccc3cccc(c23)C(=O)N1CCCCOc1ccc(-c2nc3ccc(N4CCOCC4)cc3[nH]2)cc1 | 3.77 µM | > 84.4 µM | 1.49 µM | 3.15 µM | 2.88 µM |  | 1.63 µM |  | 5.56 µM | 12.1 µM | 7.91 µM | > 48.5 µM |  |  | 10.8 µM | > 35.2 µM
CCCCCCCCSC1=CC(=O)C(OC)=C(OC)C1=O | 5.49 µM | 18.5 µM | 7 µM | 19.4 µM | 3.43 µM | 13.7 µM | 6.75 µM | 31.4 µM | 5.21 µM | 18.4 µM | 13.7 µM | 27.3 µM | 2.21 µM | 16.7 µM | 1.77 µM | 3.31 µM
N#C/C(=C/N1CCN(C(=O)c2ccco2)C1=S)C(N)=O | 34.5 µM | > 100 µM | 22.5 µM | 55.9 µM | 7.51 µM | 98.2 µM | 32.1 µM | > 100 µM | 12 µM | 32.2 µM | 36.4 µM | > 100 µM | > 100 µM | > 100 µM | 23.5 µM | 51.8 µM
Cc1ccc(/C=C2\CCOC2=O)cc1 | > 100 µM | > 100 µM | > 100 µM | > 100 µM | > 100 µM | > 100 µM |  |  | > 100 µM | > 100 µM | > 100 µM | > 100 µM | > 100 µM | > 100 µM | 41.8 µM | > 100 µM
CCOc1ccc2c(c1)/C(=C\C=C\C1CC(C)C3CC(OCC)CCC3N1CC)CC(C)N2CC (stereo not drawn) | 0.304 µM | 1.46 µM | 0.906 µM | 2.46 µM | 0.673 µM | 1.92 µM | 0.418 µM | 1.68 µM | 0.471 µM | 1.81 µM | 0.512 µM | 1.97 µM | 0.599 µM | 1.92 µM | 1.59 µM | 3.31 µM
